Test results from US20260042802A1, “POLYPEPTIDE AND USE THEREOF” (priority 2024, published 2026).
Read-outs that look alike come from different tables or passages of the source. Where a SMILES comes first, the peptide text is derived from it. Bridges are numbered along the chain shown (N, C = ends).

Assays:
Type in all cases: cell-based
Nav1.5 = target: T1, Nav1.5 (Homo sapiens, UniProt Q14524); experiment: Whole-cell patch clamp on Nav1.5 overexpressing HEK293 cells; settings: 300 nM; −90 mV to +40 mV, 30 ms; n=5
T1 construct: expressed in transfected cells; host or cells: HEK293
Method: (§1) The effect of the polypeptide PPN-01 provided in Example 1 on voltage gated sodium channels is studied using the glass microelectrodes prepared as described above in Example 2 and employing the whole-cell membrane clamp techniques. The specific operations are as follows:
(§2) 1. Firstly, internal electrode solution is placed on ice to defrost; after defrosting, an appropriate amount of internal electrode solution is drawn up with a 1 ml syringe; and after a homemade filler is applied to the tip end of the syringe, the air in the tube is emptied to fill the entire filler with internal electrode solution. Secondly, internal electrode solution in the filler is poured into the glass microelectrode from a rear part thereof by using the rear part perfusion method; internal electrode solution is slowly injected into the glass microelectrode; and the amount of perfusion is generally ⅓ to ½ of a length of the glass microelectrode (it is necessary to ensure that the silver wire of the electrode may fully contact internal electrode solution, but also to avoid electrode contamination resulting from too much internal electrode solution). […]

Nav1.6 = target: T2, Nav1.6 (Homo sapiens, UniProt Q9UQD0); experiment: Whole-cell patch clamp on Nav1.6 overexpressing HEK293 cells; settings: 300 nM; −90 mV to +40 mV, 30 ms; n=5
T2 construct: expressed in transfected cells; host or cells: HEK293
T2 sequence (Q9UQD0 whole entry): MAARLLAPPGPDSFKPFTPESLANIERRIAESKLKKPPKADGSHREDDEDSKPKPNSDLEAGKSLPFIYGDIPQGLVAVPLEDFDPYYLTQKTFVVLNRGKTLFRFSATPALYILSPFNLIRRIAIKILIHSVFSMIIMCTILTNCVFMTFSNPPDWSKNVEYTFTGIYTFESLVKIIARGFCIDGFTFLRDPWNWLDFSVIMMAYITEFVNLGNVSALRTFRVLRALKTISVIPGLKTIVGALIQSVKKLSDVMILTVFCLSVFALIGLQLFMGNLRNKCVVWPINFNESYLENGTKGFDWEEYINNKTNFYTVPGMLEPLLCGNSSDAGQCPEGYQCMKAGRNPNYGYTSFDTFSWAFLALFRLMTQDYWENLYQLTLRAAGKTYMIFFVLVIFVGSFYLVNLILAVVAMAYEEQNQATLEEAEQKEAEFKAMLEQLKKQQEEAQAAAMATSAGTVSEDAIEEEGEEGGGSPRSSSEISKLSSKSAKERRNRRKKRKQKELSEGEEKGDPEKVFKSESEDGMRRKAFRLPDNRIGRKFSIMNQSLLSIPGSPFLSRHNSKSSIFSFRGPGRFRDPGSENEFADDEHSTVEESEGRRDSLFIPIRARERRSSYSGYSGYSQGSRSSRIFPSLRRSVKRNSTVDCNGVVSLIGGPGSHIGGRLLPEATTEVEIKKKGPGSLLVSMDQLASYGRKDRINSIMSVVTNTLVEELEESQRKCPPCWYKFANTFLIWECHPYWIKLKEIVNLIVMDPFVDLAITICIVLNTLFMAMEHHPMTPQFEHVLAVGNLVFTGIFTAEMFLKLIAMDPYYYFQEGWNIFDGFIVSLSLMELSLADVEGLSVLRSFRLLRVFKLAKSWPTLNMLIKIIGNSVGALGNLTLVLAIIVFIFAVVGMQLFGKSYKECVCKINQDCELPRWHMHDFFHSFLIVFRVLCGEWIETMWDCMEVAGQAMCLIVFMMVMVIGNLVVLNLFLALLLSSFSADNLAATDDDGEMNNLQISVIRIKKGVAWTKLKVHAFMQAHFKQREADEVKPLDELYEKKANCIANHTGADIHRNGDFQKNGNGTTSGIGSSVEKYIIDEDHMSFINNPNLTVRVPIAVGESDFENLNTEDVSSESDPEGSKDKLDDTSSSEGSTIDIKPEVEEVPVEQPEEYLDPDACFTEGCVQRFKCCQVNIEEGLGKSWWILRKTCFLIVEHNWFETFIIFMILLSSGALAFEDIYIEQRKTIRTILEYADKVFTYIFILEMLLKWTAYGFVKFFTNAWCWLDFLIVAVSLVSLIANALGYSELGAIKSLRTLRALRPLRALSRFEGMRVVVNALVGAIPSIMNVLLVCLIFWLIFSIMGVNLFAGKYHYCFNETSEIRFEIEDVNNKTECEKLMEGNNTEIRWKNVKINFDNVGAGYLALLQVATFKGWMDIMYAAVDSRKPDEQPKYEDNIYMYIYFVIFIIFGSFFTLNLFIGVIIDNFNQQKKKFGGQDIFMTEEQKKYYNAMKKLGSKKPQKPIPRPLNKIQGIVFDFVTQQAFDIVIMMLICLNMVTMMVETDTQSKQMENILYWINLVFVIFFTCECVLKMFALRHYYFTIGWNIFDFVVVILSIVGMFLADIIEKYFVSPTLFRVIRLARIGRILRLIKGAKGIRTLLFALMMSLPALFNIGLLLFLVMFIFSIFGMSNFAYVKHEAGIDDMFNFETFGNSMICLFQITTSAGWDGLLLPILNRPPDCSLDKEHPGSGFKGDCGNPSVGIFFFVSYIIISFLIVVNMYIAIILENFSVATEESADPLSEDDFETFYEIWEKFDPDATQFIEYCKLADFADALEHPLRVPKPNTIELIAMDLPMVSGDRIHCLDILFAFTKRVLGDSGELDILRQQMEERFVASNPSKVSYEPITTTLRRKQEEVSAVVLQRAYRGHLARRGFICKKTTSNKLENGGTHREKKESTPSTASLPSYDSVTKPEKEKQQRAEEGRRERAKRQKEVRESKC
Method: as §1, §2

Nav1.7 channels = target: T3, Nav1.7 channels (Homo sapiens, UniProt Q15858); experiment: Whole-cell patch clamp on Nav1.7 overexpressing HEK293 cells; settings: for inhibition at 0.3 µM: HEK293, 300 nM, n=6, read-out: current inhibition
T3 construct: expressed in transfected cells; host or cells: HEK293
T3 sequence (Q15858 whole entry): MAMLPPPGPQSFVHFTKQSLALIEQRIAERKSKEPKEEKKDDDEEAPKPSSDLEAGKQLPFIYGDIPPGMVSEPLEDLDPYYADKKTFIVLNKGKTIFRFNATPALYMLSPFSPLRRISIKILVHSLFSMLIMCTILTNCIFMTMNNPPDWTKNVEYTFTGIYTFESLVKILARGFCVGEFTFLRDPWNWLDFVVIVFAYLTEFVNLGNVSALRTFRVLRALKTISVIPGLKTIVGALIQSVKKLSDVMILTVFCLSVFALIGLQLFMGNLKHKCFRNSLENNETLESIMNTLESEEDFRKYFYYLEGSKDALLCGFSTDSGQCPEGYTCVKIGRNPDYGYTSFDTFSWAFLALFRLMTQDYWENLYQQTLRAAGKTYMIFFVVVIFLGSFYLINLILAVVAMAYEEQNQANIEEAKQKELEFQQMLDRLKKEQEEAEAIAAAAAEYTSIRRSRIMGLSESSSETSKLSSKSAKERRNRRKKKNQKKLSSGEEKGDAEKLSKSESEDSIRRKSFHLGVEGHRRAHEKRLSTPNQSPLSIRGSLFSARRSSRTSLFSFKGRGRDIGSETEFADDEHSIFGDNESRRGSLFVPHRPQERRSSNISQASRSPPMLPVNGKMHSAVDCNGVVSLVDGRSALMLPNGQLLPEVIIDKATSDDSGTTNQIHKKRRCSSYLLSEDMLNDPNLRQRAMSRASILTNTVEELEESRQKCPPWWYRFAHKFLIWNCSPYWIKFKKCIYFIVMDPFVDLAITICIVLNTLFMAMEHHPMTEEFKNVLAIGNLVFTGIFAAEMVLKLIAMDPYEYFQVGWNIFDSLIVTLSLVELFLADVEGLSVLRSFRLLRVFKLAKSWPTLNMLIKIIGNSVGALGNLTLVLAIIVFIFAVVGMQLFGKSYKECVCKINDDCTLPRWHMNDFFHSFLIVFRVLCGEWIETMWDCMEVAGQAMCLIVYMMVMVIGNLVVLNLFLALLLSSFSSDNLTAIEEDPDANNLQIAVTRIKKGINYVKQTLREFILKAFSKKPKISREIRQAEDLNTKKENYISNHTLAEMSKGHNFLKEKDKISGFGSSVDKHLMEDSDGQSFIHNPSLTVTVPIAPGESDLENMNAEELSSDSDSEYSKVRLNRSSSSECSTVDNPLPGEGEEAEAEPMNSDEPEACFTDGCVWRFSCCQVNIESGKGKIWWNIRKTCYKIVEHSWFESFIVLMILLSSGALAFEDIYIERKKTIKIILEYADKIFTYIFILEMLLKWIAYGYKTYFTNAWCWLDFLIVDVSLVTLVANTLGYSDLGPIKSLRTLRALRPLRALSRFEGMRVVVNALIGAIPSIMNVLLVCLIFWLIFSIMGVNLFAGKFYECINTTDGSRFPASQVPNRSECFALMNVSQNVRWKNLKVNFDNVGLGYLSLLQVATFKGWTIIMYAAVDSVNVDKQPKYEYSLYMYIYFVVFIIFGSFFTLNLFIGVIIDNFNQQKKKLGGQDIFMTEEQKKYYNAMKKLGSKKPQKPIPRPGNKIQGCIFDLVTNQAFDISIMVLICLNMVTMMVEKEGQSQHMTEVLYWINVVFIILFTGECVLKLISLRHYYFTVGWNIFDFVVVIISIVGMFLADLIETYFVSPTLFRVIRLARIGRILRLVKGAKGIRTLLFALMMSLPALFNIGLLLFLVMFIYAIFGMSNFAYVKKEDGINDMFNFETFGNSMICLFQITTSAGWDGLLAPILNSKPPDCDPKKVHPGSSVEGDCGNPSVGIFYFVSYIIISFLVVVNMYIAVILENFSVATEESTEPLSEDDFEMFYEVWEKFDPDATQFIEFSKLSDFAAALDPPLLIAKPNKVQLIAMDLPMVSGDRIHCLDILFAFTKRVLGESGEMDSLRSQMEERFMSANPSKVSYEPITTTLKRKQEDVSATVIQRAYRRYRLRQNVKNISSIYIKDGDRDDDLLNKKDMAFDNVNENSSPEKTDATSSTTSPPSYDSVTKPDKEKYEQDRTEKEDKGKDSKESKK
Method: The recording electrode used in the present example is a glass microelectrode, which is prepared as follows: The glass electrode blanks (outer diameter of 1.50 mm, inner diameter of 0.84 mm) are prepared into single-tube glass microelectrodes with tip diameters of 1-2 μm in four steps using the P-1000 Microelectrode Horizontal Puller for subsequent experiments. Be careful not to touch the heated platinum sheet in the center when pulling the electrode, and be careful not to touch the tip of the pulled electrode to prevent the tip from breaking. Since the tip of the glass microelectrode is highly susceptible to dust attraction, it is generally prepared for use now and should not be left overnight.
Glass microelectrodes are used as follows: rinse clean the glass microelectrodes before use; then put all the glass microelectrodes in a large beaker; add anhydrous ethanol so that the glass microelectrodes are completely immersed in anhydrous ethanol; and place the beaker in an ultrasonic cleaner with ultrasonic vibration for 30 min. Subsequently, pour out the anhydrous ethanol; rinse out the glass microelectrode with ultrapure water 3-4 times; use another small beaker to cover the microelectrode so as not to contaminate the electrode with dust; put the glass microelectrode into the oven for drying; and put the glass microelectrode into a clean box for spare use after drying.
In the patch clamp experiments, the measured sodium currents are corrected for leakage currents, and the primary data of the experiments are recorded using Clampfit 10.6, and the data acquisition is performed by the pCLAMP software. Three to five sweeps are selected for analysis, (sweep, which is a term used in patch clamp software and consists of a series of sampling points) in which the current is in a stable state before the addition of the polypeptide. The average value of the peak current is thus calculated as the control current amplitude. Then 3-5 sweeps in which the current is in a stable state after the addition of polypeptide are selected and analyzed, and the average value of the residual peak current is calculated as the residual current amplitude.
The electrical stimulation effect of polypeptides PPN-01 to PPN-16 on Nav1.7 overexpressing HEK293 cells is studied using the glass microelectrodes obtained from the above preparations and the whole-cell patch clamp techniques (n=1). In a voltage-clamp mode, the clamp voltage is kept at −90 mV; a square-wave stimulus depolarized from −90 mV to +40 mV with a duration of 30 ms is applied; the concentration of each dosing (polypeptide) is 300 nM; and validation is repeated for the six polypeptides that show a significant effect (n=2).
In a voltage-clamp mode, the clamp voltage is kept at −90 m V and a square-wave stimulus depolarized from −90 mV to +40 mV with a duration of 30 ms is applied.
2. The electrical stimulation effect of the polypeptide PPN-01 provided in Example 1 on Nav1.4, Nav1.5, Nav1.6, and Nav1.7 overexpressing HEK293 cells is studied using the glass microelectrodes obtained from the above preparations and employing the whole-cell patch clamp techniques (n=5). In a voltage-clamp mode, the clamp voltage is kept at −90 mV; a square-wave stimulus depolarized from −90 mV to +40 mV with a duration of 30 ms is applied; and a concentration of each dosing (polypeptide) is 300 nM.
3. After establishing whole-cell patch clamp configuration using glass microelectrodes filled with internal electrode solution and HEK293 cells overexpressing Nav1.4, Nav1.5, Nav1.6, or Nav1.7, the polypeptides provided in Example 1 are applied separately. In a voltage-clamp mode, the clamp voltage is kept at −90 m V and a square-wave stimulus depolarized from −90 m V to +40 m V with a duration of 30 ms is applied. […]

## CSCC[C@@H]1NC(=O)CNC(=O)[C@H](CCC(=O)O)NC(=O)[C@@H]2CSSC[C@H](NC(=O)[C@H](Cc3ccc(O)cc3)NC(C)=O)C(=O)N[C@@H](CCC(N)=O)C(=O)N[C@@H](CCCCN)C(=O)N[C@@H](Cc3ccccc3)C(=O)N[C@@H](CC(C)C)C(=O)N[C@@H](C)C(=O)N3CCC[C@H]3C(=O)N[C@H]3CSSC[C@H](NC(=O)[C@H](CCC(=O)O)NC1=O)C(=O)N[C@@H](CCCCN)C(=O)N[C@@H](CC(C)C)C(=O)N[C@@H](Cc1c[nH]c4ccccc14)C(=O)N[C@H](C(=O)N[C@@H](CCCCN)C(=O)N[C@@H](CCCCN)C(=O)N[C@@H](CCCCN)C(=O)N[C@@H](CC(C)C)C(=O)N[C@@H](Cc1c[nH]c4ccccc14)C(N)=O)CSSC[C@H](NC(=O)[C@H](CCCCN)NC(=O)[C@H](CCCNC(=N)N)NC(=O)[C@H](CCC(=O)O)NC(=O)[C@H](CO)NC(=O)[C@H](CC(=O)O)NC3=O)C(=O)N2 [PPN-01] (Ac-YCQKFLAPCDSERKCCEGMECKLWCKKKLW-NH2; disulfide 2-16, 9-21, 15-25)
Nav1.5
  inhibition effect on Nav1.5 overexpressing HEK293 cells: no significant inhibition effect
Nav1.6
  inhibition effect on Nav1.6 overexpressing HEK293 cells: no significant inhibition effect
Nav1.7 channels; 300 nM polypeptide, clamp −90 mV, depolarized to +40 mV, 30 ms, vs negative control, n=1 (n=2 for six polypeptides)
  inhibition of Nav1.7 overexpressing HEK293 cells (current traces): significant inhibition
Nav1.7 channels; 300 nM, −90 mV to +40 mV, 30 ms, n=5
  inhibition effect on Nav1.7 overexpressing HEK293 cells: significant inhibition effect
Nav1.7 channels; membrane potential +40 mV
  inhibition at 0.3 µM: 89.6%
Nav1.7 channels; membrane potential −30 mV
  inhibition at 0.3 µM: 73.6%
Nav1.7 channels; membrane potential −40 mV
  inhibition at 0.3 µM: 43.6%
Nav1.7 channels; concentration-response of Nav1.7 peak current inhibition
  Hill coefficient: 1.18
